Patent publication US20100216805A1, “MODULATION OF NEUROGENESIS USING D-CYCLOSERINE COMBINATIONS” (BrainCells, Inc., priority 2009, published 2010)
Several values for one entry are separate records, joined by “and”; a condition that tells them apart may be missing. Identical values can stand only once. Like-named read-outs stand apart in the source and are kept apart here.

Assays:
[1] = system: Human neural stem cells (hNSCs); experiment: Neuronal differentiation of human neural stem cells (TUJ-1 staining), concentration response and combination index; type: cell-based
Method: Mitogen-free test media with a positive control for neuronal differentiation was used along with basal media without growth factors as a negative control.
To determine the most efficacious dose and dose ratio of D-cycloserine in combination with pindolol or (S)-(−)-pindolol for future preclinical and clinical studies, dose ranging studies were conducted examining synergy for neurogenesis. […] The pindolol or (S)-(−)-pindolol concentrations were varied based on the respective ratios tested. Individual dose response curves were prepared for each concentration ratio as previously described with cells stained with TUJ-1 antibody for the detection of neuronal differentiation.
The presence of synergy was determined by use of a combination index (CI). […] The CI is a quantitative measure of the nature of drug interactions, comparing the EC50's of two compounds, when each is assayed alone, to the EC50 of each compound when assayed in combination. The combination index (CI) is equal to the following formula: […]
where C1 and C2 are the concentrations of a first and a second compound, respectively, resulting in 50% activity in neuronal differentiation when assayed in combination; and IC1 and IC2 are the concentrations of each compound resulting in 50% activity when assayed independently.

[2] = system: KA, AMPA, and NMDA iGlu receptors; conditions: cited from earlier work
human mGlu3 = human mGlu3 (Homo sapiens, UniProt Q14832); conditions: in vitro; low nanomolar range; read-out: EC50 against human mGlu3 receptor; cited from earlier work
Chain of human mGlu3 (Q14832 23-879): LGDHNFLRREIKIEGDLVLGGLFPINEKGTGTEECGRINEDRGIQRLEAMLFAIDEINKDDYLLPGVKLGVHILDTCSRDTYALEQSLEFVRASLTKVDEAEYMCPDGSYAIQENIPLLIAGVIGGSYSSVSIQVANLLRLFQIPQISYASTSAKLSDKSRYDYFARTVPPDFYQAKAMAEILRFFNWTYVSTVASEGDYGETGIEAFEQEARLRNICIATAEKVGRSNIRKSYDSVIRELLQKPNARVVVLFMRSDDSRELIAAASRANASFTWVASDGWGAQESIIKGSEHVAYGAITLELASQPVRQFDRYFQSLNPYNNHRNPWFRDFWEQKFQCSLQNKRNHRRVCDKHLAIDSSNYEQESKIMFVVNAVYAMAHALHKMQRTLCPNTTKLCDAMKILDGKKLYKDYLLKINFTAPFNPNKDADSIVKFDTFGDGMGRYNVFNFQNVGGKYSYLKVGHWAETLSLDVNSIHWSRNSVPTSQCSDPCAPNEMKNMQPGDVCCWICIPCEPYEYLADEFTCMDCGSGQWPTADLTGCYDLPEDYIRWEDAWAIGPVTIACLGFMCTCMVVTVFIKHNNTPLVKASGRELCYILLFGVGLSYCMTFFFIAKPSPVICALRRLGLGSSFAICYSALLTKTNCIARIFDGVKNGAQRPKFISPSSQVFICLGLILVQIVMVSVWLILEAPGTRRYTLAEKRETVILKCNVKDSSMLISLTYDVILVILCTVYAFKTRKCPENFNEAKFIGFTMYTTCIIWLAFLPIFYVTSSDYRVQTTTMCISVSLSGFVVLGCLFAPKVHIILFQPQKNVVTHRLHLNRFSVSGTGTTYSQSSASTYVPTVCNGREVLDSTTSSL

human mGlu2 = human mGlu2 (Homo sapiens, UniProt Q14416); conditions: in vitro; low nanomolar range; read-out: EC50 against human mGlu2 receptor; cited from earlier work
Chain of human mGlu2 (Q14416 19-872): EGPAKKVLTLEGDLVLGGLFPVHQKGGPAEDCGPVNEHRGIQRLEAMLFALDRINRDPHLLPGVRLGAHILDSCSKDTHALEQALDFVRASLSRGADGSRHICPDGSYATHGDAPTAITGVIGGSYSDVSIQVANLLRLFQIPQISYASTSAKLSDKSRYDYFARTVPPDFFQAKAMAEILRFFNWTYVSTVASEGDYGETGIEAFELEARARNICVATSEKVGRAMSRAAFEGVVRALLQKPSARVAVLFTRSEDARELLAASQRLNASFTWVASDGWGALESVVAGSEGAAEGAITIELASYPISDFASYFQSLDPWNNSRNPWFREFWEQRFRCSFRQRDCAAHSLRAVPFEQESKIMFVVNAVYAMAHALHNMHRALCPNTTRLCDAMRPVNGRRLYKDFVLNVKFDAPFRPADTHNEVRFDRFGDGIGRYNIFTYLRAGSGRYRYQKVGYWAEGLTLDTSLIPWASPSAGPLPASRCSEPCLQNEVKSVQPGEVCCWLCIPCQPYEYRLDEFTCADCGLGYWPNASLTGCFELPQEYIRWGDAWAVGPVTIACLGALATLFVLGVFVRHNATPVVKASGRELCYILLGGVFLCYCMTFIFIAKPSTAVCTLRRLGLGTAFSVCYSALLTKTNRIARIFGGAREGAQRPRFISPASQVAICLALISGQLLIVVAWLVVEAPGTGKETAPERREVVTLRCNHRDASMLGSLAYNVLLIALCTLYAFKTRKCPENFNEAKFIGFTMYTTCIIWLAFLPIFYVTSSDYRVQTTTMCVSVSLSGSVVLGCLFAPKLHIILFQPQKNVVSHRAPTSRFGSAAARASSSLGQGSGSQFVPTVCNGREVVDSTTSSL

mGluR2 = mGluR2 (Homo sapiens, UniProt Q14416); conditions: read-out: IC50 against mGluR2; cited from earlier work
Chain of mGluR2 (Q14416 19-872): as above

mGluR3 = mGluR3 (Homo sapiens, UniProt Q14832); conditions: read-out: IC50 against mGluR3; cited from earlier work
Chain of mGluR3 (Q14832 23-879): as the sequence (Q14832 23-879) above

[3] = system: Group I or Group III receptors; conditions: at sub-mM concentrations; cited from earlier work
[4] = Homo sapiens, Neural stem cell, agent run independently, % of neuronal positive control, basal media subtracted, figure legends, read-out: EC50 when used alone, neuronal differentiation

Q: For `Nc1nc2ncc(CNc3ccc(C(=O)N[C@@H](CCC(=O)O)C(=O)O)cc3)nc2c(=O)[nH]1` [folic acid], which EC50 [1, 4] is on record?
A: 1.09 µM

Q: Which “activity against KA, AMPA, and NMDA iGlu receptors” value [2] does the source give for `N[C@](CC1c2ccccc2Oc2ccccc21)(C(=O)O)[C@H]1C[C@@H]1C(=O)O` [LY341495, (2S)-2-amino-2-(1S,2S-2-carboxycycloprop-1-yl)-3-(xanth-9-yl) propanoic acid] here?
A: substantially inactive

Q: For `CC1(C)O[C@@H]2[C@@H](CO[C@@]3(COS(N)(=O)=O)OC(C)(C)O[C@@H]23)O1` [topiramate], which EC50 [1, 4] is on record?
A: 7.1 µM

Q: Which results are given for `CC(C)NC[C@H](O)COc1cccc2[nH]ccc12` [(S)-(−)-Pindolol]?
A: EC50 ([1]; Table 2, (S)-(−)-pindolol alone, run with the ratio of that row, read-out: Solo EC50's (S)-(−)-Pindolol): 2.8 µM and 1.82 µM and 1.78 µM; EC50 ([1]; agent run independently, % of neuronal positive control, basal media subtracted, figure legends, read-out: EC50 when used alone, neuronal differentiation): 1.8 µM

Q: With `N[C@@]1(C(=O)O)CO[C@H]2[C@H](C(=O)O)[C@H]21` [LY379268, (−)-2-Oxa-4-aminobicyclohexane-4,6-dicarboxylic acid] as the compound, how does the EC50 (human mGlu3) read?
A: < 0.01 µM

Q: And the EC50 (human mGlu2)?
A: < 0.01 µM

Q: For `CC(=O)N[C@@H](CS)C(=O)O` [N-acetyl-L-cysteine], which EC50 [1, 4] is on record?
A: 114 µM

Q: For `NC(=O)C[S+]([O-])C(c1ccccc1)c1ccccc1` (centres unmarked) [modafinil], which EC50 ([1]; Homo sapiens, Neural stem cell, read-out: EC50 when used alone, neuronal differentiation) is on record?
A: 11 µM

Q: For `N[C@@H]1CONC1=O` [D-cycloserine, (4R)-4-amino-1,2-oxazolidin-3-one], which EC50 ([1]; Homo sapiens, Neural stem cell, Table 1, D-cycloserine alone, run with the ratio of that row, read-out: Solo EC50's D-cycloserine) is on record?
A: 7.91 µM

Q: What about the EC50 ([1]; Homo sapiens, Neural stem cell, Table 2, D-cycloserine alone, run with the ratio of that row, read-out: Solo EC50's D-cycloserine) of the same compound?
A: 5.62 µM

Q: And the EC50 ([1]; Table 1, D-cycloserine alone, run with the ratio of that row, read-out: Solo EC50's D-cycloserine)?
A: 8.48 µM and 7.41 µM

Q: What about the EC50 ([1]; Table 2, D-cycloserine alone, run with the ratio of that row, read-out: Solo EC50's D-cycloserine) of the same compound?
A: 8.48 µM

Q: With `CC(C)NCC(O)COc1cccc2[nH]ccc12` (centres unmarked) [Pindolol] as the compound, how does the EC50 ([1]; Homo sapiens, Neural stem cell, Table 1, pindolol alone, run with the ratio of that row, read-out: Solo EC50's Pindolol) read?
A: 1.43 µM

Q: And the EC50 [1, 4]?
A: 1.4 µM

Q: What about the EC50 ([1]; Table 1, pindolol alone, run with the ratio of that row, read-out: Solo EC50's Pindolol) of the same compound?
A: 1.32 µM and 1.98 µM and 1.65 µM

Q: Which EC50 [1, 4] does the source give for `COCCOC(=O)C1=C(C)NC(C)=C(C(=O)OC(C)C)C1c1cccc([N+](=O)[O-])c1` (centres unmarked) [nimodipine] here?
A: 100 µM

Q: Which EC50 [1, 4] does the source give for `CC(C)(C)NCC(O)COc1cccc2c1CC(O)C(O)C2` (centres unmarked) [nadolol] here?
A: 6.7 µM

Q: With `NC1(C(=O)O)CCc2cc(P(=O)(O)O)ccc21` (racemic) [APICA, (RS)-1-amino-5-phosphonoindan-1-carboxylic acid] as the compound, how does the IC50 (mGluR2) read?
A: ~30 µM

Q: What about the IC50 (mGluR3) of the same compound?
A: ~30 µM

Q: What about the “activity against Group I or Group III receptors” value [3] of the same compound?
A: no appreciable activity

Q: With `CCC(=O)c1c(O)cc(O)cc1O` [flopropione] as the compound, how does the EC50 [1, 4] read?
A: 16.6 µM

Q: With `CC(CCc1ccccc1)NCC(O)c1ccc(O)c(C(N)=O)c1` (centres unmarked) [labetalol] as the compound, how does the EC50 [1, 4] read?
A: 5.5 µM
